Here are results for one substance from patent US12365925B2, “Method and system for treatment of microorganisms during propagation, conditioning, fermentation, and preservation using ethyl lauroyl arginate and selected additives” (KEMIN INDUSTRIES, INC., priority 2015, dated 2025).

For series [1], the system named is Culture Dry Yeast (CDY) corn-mash fermentations. Briefly: HPLC of corn-mash fermentations challenged with bacterial contamination and LAE treatments. The series is classed as cell-based. The settings on record: CDY + treatment + Bacteria; average. From the text: In support of validating LAE, High Performance Liquid Chromatography (HPLC) was used in a first phase of testing to evaluate the effects of LAE applications at various concentrations in order to determine the minimal inhibitory concentrations (MIC) of the LAE antimicrobial on a panel of industry-relevant bacteria. Refer to Tables 1 and 2 below, as well as FIGS. 2A-2D. FIG. 2A provides a visual depiction of test data relating to ethanol output from corn-mash fermentations treated with varying concentrations of LAE, with the results being the averages of triplicate samples (within one standard deviation). FIG. 2B provides a visual depiction of test data relating to ethanol output from corn-mash fermentations challenged with bacterial contamination and treated with 35 ppm LAE or 5 ppm Lactocide V (Virginamycin) (at the same time as the introduction of the bacteria), with the results being the averages of triplicate samples (within one standard deviation). FIG. 2C provides a visual depiction of test data relating to ethanol output from corn-mash fermentations challenged with bacterial contamination and treated with 50 ppm LAE or 5 ppm Lactocide V (Virginamycin) (at the same time as the introduction of the bacteria), with the results being the averages of triplicate samples (within one standard deviation). FIG. 2D provides a visual depiction of test data relating to colony-forming units (CFUs) of commercial yeast preparation with bacterial-contamination growth under batch-propagation conditions (molasses) with the addition of 0 ppm, 25 ppm, or 50 ppm LAE. One of the primary goals with the first phase of the LAE studies was to determine whether the addition of LAE would adversely affect ethanol production, and it was determined that LAE not only was not harmful to ethanol-production processes, but that unwanted microbe growth was inhibited using LAE enough to allow foregoing the use of antibiotics. Part of this analysis was to determine whether the introduction of LAE into the ethanol-production process would adversely impact the stillage byproducts used in animal feed, and for that matter whether the further use of LAE as a preservative in such byproducts would be safe for consumption by agricultural livestock. […] The testing serving as a basis for this conclusion assumed a maximum residual concentration of the LAE of 173 ppm in the distiller's grains. The safety of distiller's grains with LAE concentrations above 173 ppm was not fully evaluated.

Another series concerns Weisella confusa. The settings on record: fermentation mixture; cited from earlier work.
A further series relates to fermentation. The settings on record: fermentation mixture; cited from earlier work.

As to Virginiamycin [Lactocide], in series [1], the “Acetic Acid” value was 0.14 % wt/vol, the DP3 was found to be 0.15 % wt/vol, the DP4 stood at 0.78 % wt/vol and the Ethanol was 13.36 % wt/vol. In series [1], the Glucose is 0.12 % wt/vol, the Glycerol is given as 1.59 % wt/vol, the “Lactic Acid” value is given as 0.27 % wt/vol and the Maltose was 0.48 % wt/vol. Besides, in the series on Weisella confusa, the “concentration required to inhibit growth” value is on record as “over 25 mg/L”. The “concentration that will suppress fermentation” value in the series on fermentation is given as “over 6 mg/L”.
